Structures are written as SMILES.

The series can be described thus: Rate of degradation/transformation of compounds in solution (half-life for the transformation to the active moiety) at pH 2 and 7. Type of series: physicochemical. The note with it: water solution. The method, then:
Rate of degradation/transformation of compounds
Half-life (mintues) for the
transformation to the active moiety
Also at neutral pH-values the degradation reaction proceeds rapidly, e.g. at pH=7 the half-life of degradation is between 10 minutes and 65 hours while at higher pH-values the stability in solution for most compounds is much better. The stability profile is similar in solid phase. The degradation is catalyzed by acid reacting substances. The acid labile compounds are stabilized in mixtures with alkaline reacting substances.

Take `COC(=O)c1cc2nc([S+]([O-])Cc3ncccc3C)[nH]c2cc1C` (centres unmarked): the half-life reads like this: (at pH = 2) 11 min; (at pH = 7) 150 min.
With `COc1ccnc(C[S+]([O-])c2nc3cc(C(F)(F)F)ccc3[nH]2)c1` (centres unmarked), the half-life (at pH = 2) amounted to 1.9 min and the half-life (at pH = 7) stood at 122 min.
As for `Cc1cnc(C[S+]([O-])c2nc3cc(C)ccc3[nH]2)c(C)c1` (centres unmarked), the half-life turned out to be 5.4 min (at pH = 2) and 1700 min (at pH = 7).
Taken in the same sequence, the figures for `CCc1cnc(C[S+]([O-])c2nc3cc(OC)ccc3[nH]2)cc1Oc1ccccc1` (centres unmarked) were 3.7 min and 1620 min.
As to `CCc1ccc2[nH]c([S+]([O-])Cc3nc4ccccc4n3C)nc2c1` (centres unmarked), for the setting “at pH = 2”, the half-life worked out at 33 min.
Consider `COc1ccnc(C[S+]([O-])c2nc3cc(C(F)(F)F)ccc3[nH]2)c1C` (centres unmarked), for which the half-life reads like this: (at pH = 2) 2 min; (at pH = 7) 8.8 min.

The record behind these values is US4853230A, “Pharmaceutical formulations of acid labile substances for oral use” (priority 1986, dated 1989).
